melting point: 174 to 176.5 °C
SMILES: Cl.Cn1c(CCCC(=O)O)nc2ccc(N(CCCl)CCCl)cc21
